Data on one compound can be found in patent US20230375576A1, “METHODS FOR THE TREATMENT OF FAMILIAL HETEROZYGOUS AND HOMOZYGOUS HYPERCHOLESTEROLEMIA WITH CYCLODEXTRINS” (Beren Therapeutics P.B.C., priority 2021, published 2023).

For one assay, the system named is Ldlr−/− mice. As to the kind of experiment: Effect on liver weight in Ldlr−/− mouse model. The assay is classed as in vivo. The note with it: Ldlr−/− mice on Western diet; 2 g/kg subcutaneously after five weeks; livers weighed up to 4 weeks post-HPBCD; versus untreated mice; FIG. 3. The text has this: To evaluate the effect of HPBCD (2-hydroxypropyl-beta-cyclodextrin) on liver weight, experiments using Ldlr−/− mice were designed as described in FIGS. 2A and 2B. The mice were fed normal chow diet (NC) or high-fat (42%), high-cholesterol (1.2) diet Western diet (WD) as described in Table 1 and Table 2. After five weeks, the mice were subcutaneously injected with 2 g/kg […]. The livers were excised and weighed after five weeks (Group 1, 2, 6), six weeks (Group 3), seven weeks (Group 4), and nine weeks (Group 5), respectively. [table] [table]

The nature of assay [1]: Cholesterol crystal dissolution capacity in plasma of HoFH patients (D6-labeled cholesterol in filtrate, GC-MS). The note with it: human plasma from HoFH patients; D6-labeled cholesterol crystals added; compared to control group; FIG. 1A. The procedure: D6-labeled cholesterol crystals were added to human plasma collected from homozygous familial hypercholesterolemia (HoFH) patients treated with HPBCD (2-hydroxypropyl-beta-cyclodextrin). The reaction mixtures were filtered to remove crystals and the filtrate was assayed for the presence of D6-labeled cholesterol using gas chromatography-mass spectroscopy (GC-MS). Cholesterol measured in the filtrate indicated the ability of HPBCD (2-hydroxypropyl-beta-cyclodextrin) to dissolve cholesterol crystals.

A further assay has as its system ABCA1. As to the kind of experiment: mRNA expression of ABCA1 in whole blood from HoFH patients. The assay is classed as cell-based, human. The note with it: 1.2 mM HPBCD, 6 hours, normalized to saline control, FIG. 1B. The procedure: This example aims to investigate the effects of HPBCD (2-hydroxypropyl-beta-cyclodextrin) on cholesterol efflux capacity in HoFH patients. HPBCD was added to whole blood obtained from HoFH patients at concentration of 1.2 mM. Untreated samples were used as control. The mixtures were incubated for 6 hours. Total mRNA was isolated and mRNA expression levels were measured. Data is shown as the level of gene expression normalized to saline control.

“Also recorded” adds a separate entry of the source.

As for `CC(O)COC[C@H]1O[C@@H]2O[C@H]3[C@H](O)[C@@H](O)[C@@H](O[C@H]4[C@H](O)[C@@H](O)[C@@H](O[C@H]5[C@H](O)[C@@H](O)[C@@H](O[C@H]6[C@H](O)[C@@H](O)[C@@H](O[C@H]7[C@H](O)[C@@H](O)[C@@H](O[C@H]8[C@H](O)[C@@H](O)[C@@H](O[C@H]1[C@H](O)[C@H]2O)O[C@@H]8COCC(C)O)O[C@@H]7COCC(C)O)O[C@@H]6COCC(C)O)O[C@@H]5COCC(C)O)O[C@@H]4COCC(C)O)O[C@@H]3COCC(C)O` (stereo partly drawn) [HPBCD, 2-hydroxypropyl-beta-cyclodextrin], the liver weight result with Ldlr−/− mice is listed as “inhibits increase of liver weight; also recorded: did not show any further increase in liver weight”. In addition, the cholesterol crystal dissolution entry in assay [1] was “significantly increased”. The “mRNA expression level of ABCA1” value in the assay with ABCA1 was “significant induction”.
